Measurements: US8252737B2, “Antimicrobial peptides and methods of use” (priority 2004, dated 2012)
Converted amounts (≈) assume the structure as drawn. Like-named read-outs stand apart in the source and are kept apart here.

How the values were obtained:
human erythrocytes = assay: Hemolytic activity (MHC), Protocol A, 12 hours; conditions: for minimal hemolytic concentration (MHC): incubation for 12 hours at 37° C. (Tables 7 and 8); for MHC: minimal hemolytic concentration on human red blood cells (hRBC), Table 9
Method: Measurement of Hemolytic Activity—Protocol A: Peptide samples were added to 1% human erythrocytes in phosphate buffered saline (0.08M NaCl; 0.043M Na2PO4; 0.011M KH2PO4) and reactions were incubated at 37° C. for 12 hours in microtiter plates. Peptide samples were diluted 2 fold in order to determine the concentration that produced no hemolysis. […] Hemoglobin release was determined spectrophotometrically at 562 nm. The hemolytic titer was the highest 2-fold dilution of the peptide that still caused release of hemoglobin from erythrocytes. The control for no release of hemoglobin was a sample of 1% erythrocytes without any peptide added. […] Peptide samples were diluted 2 fold in order to determine the concentration that produced no hemolysis. […] Hemoglobin release was determined spectrophotometrically at 570 nm. The hemolytic titer was the highest 2-fold dilution of the peptide that still caused release of hemoglobin from erythrocytes. The control for no release of hemoglobin was a sample of 1% erythrocytes without any peptide added.

gram-negative bacteria = assay: MIC, microtiter dilution, Gram-negative bacteria (geometric mean of 6 strains); format: cell-based; conditions: geometric mean MIC, Table 9
Method: The geometric mean MIC values from 6 microbial strains in this table were calculated to provide an overall evaluation of antimicrobial activity against gram-negative bacteria.
In Table 11, geometric mean MIC was calculated to provide an overall view of antimicrobial activity of the peptides against Gram-negative bacteria and was also used to calculate the therapeutic index.
(§1) Measurement of Antimicrobial Activity—Minimal inhibitory concentrations (MICs) were determined using a standard microtiter dilution method in LB (Luria-Bertani) no-salt medium (10 g of tryptone and 5 g of yeast extract per liter). Briefly, cells were grown overnight at 37° C. in LB and diluted in the same medium. […] Plates were incubated at 37° C. for 24 hours and MICs determined as the lowest peptide concentration that inhibited growth. Alternatively, minimal inhibitory concentrations were determined using a standard microtiter dilution method in a Mueller-Hinton (MH) medium. Briefly, cells were grown overnight at 37° C. in MH broth and diluted in the same medium. […] Plates were incubated at 37° C. for 24 hours and MICs determined as the lowest peptide concentration that inhibited growth. However, for MIC determination of Pseudomonas aeruginosa clinical isolates, brain heart infusion (BH1) medium was used instead of MH broth. In addition, the bacteria were diluted to a final inoculum of 1×10^6 colony-forming units/ml.

gram-positive bacteria = tested on: gram-positive bacteria
Method: as §1

[1] = RP-HPLC temperature profiling (hydrophobicity and self-association/dimerization parameter PA); format: physicochemical; conditions: for tR (min) 5° C.: RP-HPLC retention time at 5° C. during temperature profiling (measure of hydrophobicity); for tR (min) 80° C.: RP-HPLC retention time at 80° C. during temperature profiling; for decrease in hydrophobicity relative to NVL (V681): RP-HPLC retention time difference at 80° C.; for decrease in hydrophobicity relative to NVL (V681) / ΔtR (X-NVL) (min) 5° C. / ΔtR (X-NVL) (min) 80° C.: non-polar face substitutions; for tR (min) Max: maximal RP-HPLC retention time during temperature profiling 5-80° C.; for PA (min) association parameter: maximal retention time difference relative to control peptide C within 5-80° C.; for ΔtR (X-NVL) (min) 5° C.: retention time difference relative to native peptide V681 (NVL) at 5° C.; for ΔtR (X-NVL) (min) 5° C. / ΔtR (X-NVL) (min) 80° C.: relative hydrophobicity; for ΔtR (X-NVL) (min) 80° C.: retention time difference relative to native peptide V681 (NVL) at 80° C.
In short: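 RP-HPLC retention times recorded over temperature profiling from 5°C to 80°C, with retention relative to native V681 at each limit used as hydrophobicity. Self-association parameter PA defined as the maximal change in retention time from 5°C, after subtracting that of monomeric random-coil control peptide C.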

| Compound | minimal hemolytic concentration (MHC) (human erythrocytes) | MHC (human erythrocytes) | MIC (μg/ml) Gram-negative (gram-negative bacteria) | MIC (μg/ml) Gram-positive (gram-positive bacteria) | tR (min) 5° C. [1] | tR (min) 80° C. [1] | decrease in hydrophobicity relative to NVL (V681) [1] | tR (min) Max [1] | PA (min) association parameter [1] | ΔtR (X-NVL) (min) 5° C. [1] | ΔtR (X-NVL) (min) 80° C. [1] | MIC (μg/ml) Gram-positive (gram-positive bacteria; geometric mean MIC, Table 9) |
| --- | --- | --- | --- | --- | --- | --- | --- | --- | --- | --- | --- | --- |
| Ac-KWKSFLKTFKSASKTVLHTALKAISS-NH2 [NSL] | 125 µg/mL | 125.0 µg/mL | 4.2 µg/mL | 7.4 µg/mL | 40.72 min | 37.62 min | -8.21 min | 41.08 min | 1.82 min | -7.38 min | -8.21 min | – |
| CC[C@H](C)[C@H](NC(=O)[C@H](C)NC(=O)[C@H](CCCCN)NC(=O)[C@H](CC(C)C)NC(=O)[C@H](C)NC(=O)[C@@H](NC(=O)[C@H](Cc1c[nH]cn1)NC(=O)[C@H](CC(C)C)NC(=O)[C@@H](NC(=O)[C@@H](NC(=O)[C@H](CCCCN)NC(=O)[C@H](C)NC(=O)[C@H](C)NC(=O)[C@H](CO)NC(=O)[C@H](CCCCN)NC(=O)[C@H](Cc1ccccc1)NC(=O)[C@@H](NC(=O)[C@H](CCCCN)NC(=O)[C@H](CC(C)C)NC(=O)[C@H](Cc1ccccc1)NC(=O)[C@H](CO)NC(=O)[C@H](CCCCN)NC(=O)[C@H](Cc1c[nH]c2ccccc12)NC(=O)[C@H](CCCCN)NC(C)=O)[C@@H](C)O)[C@@H](C)O)C(C)C)[C@@H](C)O)C(=O)N[C@@H](CO)C(=O)N[C@@H](CO)C(N)=O [NAL] | 31.2 µg/mL | 31.2 µg/mL | 3.8 µg/mL (≈ 1.3 µM) | 4.5 µg/mL (≈ 1.53 µM) | 43.94 min | 41.38 min | -4.45 min | 44.88 min | 2.59 min | -4.16 min | -4.45 min | – |
| CC[C@H](C)[C@H](NC(=O)[C@H](C)NC(=O)[C@H](CCCCN)NC(=O)[C@H](CC(C)C)NC(=O)[C@H](C)NC(=O)[C@@H](NC(=O)[C@H](Cc1c[nH]cn1)NC(=O)[C@H](CC(C)C)NC(=O)[C@@H](NC(=O)[C@@H](NC(=O)[C@H](CCCCN)NC(=O)[C@@H](CCCCN)NC(=O)[C@H](C)NC(=O)[C@H](CO)NC(=O)[C@H](CCCCN)NC(=O)[C@H](Cc1ccccc1)NC(=O)[C@@H](NC(=O)[C@H](CCCCN)NC(=O)[C@H](CC(C)C)NC(=O)[C@H](Cc1ccccc1)NC(=O)[C@H](CO)NC(=O)[C@H](CCCCN)NC(=O)[C@H](Cc1c[nH]c2ccccc12)NC(=O)[C@H](CCCCN)NC(C)=O)[C@@H](C)O)[C@@H](C)O)C(C)C)[C@@H](C)O)C(=O)N[C@@H](CO)C(=O)N[C@@H](CO)C(N)=O [NKD] | – | >250.0 µg/mL | 7.7 µg/mL (≈ 2.57 µM) | – | 34.05 min | 30.96 min | – | 34.05 min | 1.10 min | -14.05 min | -14.87 min | 18.7 µg/mL (≈ 6.25 µM) |
| CC[C@H](C)[C@H](NC(=O)[C@H](C)NC(=O)[C@H](CCCCN)NC(=O)[C@H](CC(C)C)NC(=O)[C@H](C)NC(=O)[C@@H](NC(=O)[C@H](Cc1c[nH]cn1)NC(=O)[C@H](CC(C)C)NC(=O)[C@@H](NC(=O)[C@@H](NC(=O)[C@H](CCCCN)NC(=O)[C@H](NC(=O)[C@H](C)NC(=O)[C@H](CO)NC(=O)[C@H](CCCCN)NC(=O)[C@H](Cc1ccccc1)NC(=O)[C@@H](NC(=O)[C@H](CCCCN)NC(=O)[C@H](CC(C)C)NC(=O)[C@H](Cc1ccccc1)NC(=O)[C@H](CO)NC(=O)[C@H](CCCCN)NC(=O)[C@H](Cc1c[nH]c2ccccc12)NC(=O)[C@H](CCCCN)NC(C)=O)[C@@H](C)O)C(C)C)[C@@H](C)O)C(C)C)[C@@H](C)O)C(=O)N[C@@H](CO)C(=O)N[C@@H](CO)C(N)=O [NVD] | – | 62.5 µg/mL | 3.3 µg/mL (≈ 1.11 µM) | – | 42.55 min | 40.15 min | – | 43.43 min | 2.63 min | -5.55 min | -5.68 min | 2.8 µg/mL (≈ 0.945 µM) |
